From US20240174634A1, “Aldehyde Dehydrogenase Inhibitors and Their Therapeutic Use” (priority 2020, published 2024)

Each compound was assayed against T1, ALDH2 (Homo sapiens, UniProt P05091) (assay: Selectivity biochemical assay, NAD(P)H-Glo Detection System).
T1 sequence (P05091 18-517): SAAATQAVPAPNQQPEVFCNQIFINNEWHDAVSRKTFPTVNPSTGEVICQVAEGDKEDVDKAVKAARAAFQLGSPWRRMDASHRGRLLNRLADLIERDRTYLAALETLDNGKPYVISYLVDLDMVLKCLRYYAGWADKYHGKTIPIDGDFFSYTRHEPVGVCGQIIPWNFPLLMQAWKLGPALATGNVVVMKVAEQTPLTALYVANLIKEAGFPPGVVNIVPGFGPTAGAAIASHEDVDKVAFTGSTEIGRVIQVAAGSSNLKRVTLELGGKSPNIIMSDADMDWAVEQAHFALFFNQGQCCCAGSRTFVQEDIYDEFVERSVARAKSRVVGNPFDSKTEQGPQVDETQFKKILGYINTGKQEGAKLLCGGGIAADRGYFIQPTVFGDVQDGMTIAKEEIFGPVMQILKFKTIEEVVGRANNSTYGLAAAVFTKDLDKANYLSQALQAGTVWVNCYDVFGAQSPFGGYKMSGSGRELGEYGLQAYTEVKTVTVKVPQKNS
Method: Materials: ALDH2 was purchased from Abnova. Tris(hydroxymethyl)aminomethane (Tris) was purchased from MP Biomedicals. TCEP, ethylenediaminetetraacetic acid (EDTA), propionaldehyde, DMSO and Tween-20 were purchased from Sigma. Nicotinamide adenine dinucleotide (NAD) was obtained from Abcam. The NAD(P)H-Glo™ Detection System was purchased from Promega. White, non-binding surface, 384 well plates were supplied by Corning (#3574).
Method: Inhibition of ALDH1A3 was assessed using the NAD(P)H-Glo™ Detection System (Cat. No. G9062) from Promega. This assay detects the production of NADH from NAD by ALDH1A3 via the coupled enzymatic conversion of a proluciferin reductase substrate to generate a luminescent signal. Inhibition of ALDH1A3 by small molecule inhibitors will result in reduction or abrogation of luminescence signal increase above background. Inhibition of ALDH1A1, ALDH1A2 and ALDH2 (selectivity assays) were assessed using the same assay.
Compounds were dosed into Corning 384 well assay plates using an Echo acoustic dispenser to give 10 point curves in a 3-fold dilution series. Compounds were dispensed from a 20 mM DMSO stock and initially screened at a top concentration of 20 μM (ALDH1A3) or 250 μM (ALDH1A1, ALDH1A2 & ALDH2). Enzyme was added to the plate in a 5 μL volume, according to the final concentrations in table 1 below, and pre-incubated with compound for 30 minutes at room temperature before the addition of 5 μL of the substrate (propionaldehyde) and cofactor (NAD), to effect final concentrations equal to the Km as shown in Table 1. The assay buffer used consisted of 40 mM Tris for 1A1 (pH 7.6), 1A2 (pH 7.6) and 1A3 (pH 9.0) and 10 mM Tris for ALDH2 (pH 8.0) supplemented with 1 mM TCEP, 0.01% Tween-20, 0.1 mM EDTA. The reaction mix was incubated at 26° C. on a shaking incubator for 30 minutes before being stopped by the addition of 10 μL of the Promega detection reagent and 100×IC50 of inhibitors of the respective isoforms. After stopping the reaction the plate was incubated for 60 minutes at room temperature and the luminescence signal read on a PheraStar FS microplate reader (BMG Labtech) and resulting IC50 values were calculated using Dotmatics software.
Enzyme, substrate and cofactor concentrations were selected to ensure the reaction ran under initial velocity conditions.

| Structure (SMILES) | IC50 [µM] |
| --- | --- |
| O=C1CCc2cc(OCCN3CCCC3c3cccs3)ccc2N1 (stereo not drawn) [ALDHI-2013, 6-[2-[2-(2-thienyl)pyrrolidin-1-yl]ethoxy]-3,4-dihydro-1H-quinolin-2-one] | ≥ 100 |
| O=C1CCc2cc(OCCN3CCCC3c3ccsc3)ccc2N1 (stereo not drawn) [ALDHI-2014, 6-[2-[2-(3-thienyl)pyrrolidin-1-yl]ethoxy]-3,4-dihydro-1H-quinolin-2-one] | ≥ 100 |
| CCn1cc(C2CCCN2CCOc2ccc3c(c2)CCC(=O)N3)cn1 (stereo not drawn) [ALDHI-2016, 6-[2-[2-(1-ethylpyrazol-4-yl)pyrrolidin-1-yl]ethoxy]-3,4-dihydro-1H-quinolin-2-one] | ≥ 100 |
| O=C1CCc2cc(OCCN3CCC[C@H]3c3cccc(F)c3)ccc2N1 [ALDHI-2018, 6-[2-[(2S)-2-(3-fluorophenyl)pyrrolidin-1-yl]ethoxy]-3,4-dihydro-1H-quinolin-2-one] | ≥ 100 |
| O=C1CCc2cc(OCCN3CCCC3c3ccccc3)ccc2N1 (stereo not drawn) [ALDHI-2019, 6-[2-(2-phenylpyrrolidin-1-yl)ethoxy]-3,4-dihydro-1H-quinolin-2-one] | ≥ 100 |
| O=C1CCCc2cc(OCCN3CCCC3c3cccc(F)c3)ccc2N1 (stereo not drawn) [ALDHI-2020, 7-[2-[2-(3-fluorophenyl)pyrrolidin-1-yl]ethoxy]-1,3,4,5-tetrahydro-1-benzazepin-2-one] | ≥ 100 |
| O=C1CCc2cc(OCCN3CCC3c3cccc(F)c3)ccc2N1 (stereo not drawn) [ALDHI-2021, 6-[2-[2-(3-fluorophenyl)azetidin-1-yl]ethoxy]-3,4-dihydro-1H-quinolin-2-one] | ≥ 100 |
| O=c1ccc2cc(OCCN3CCCC3c3cccc(F)c3)ccc2[nH]1 (stereo not drawn) [ALDHI-2022, 6-[2-[2-(3-fluorophenyl)pyrrolidin-1-yl]ethoxy]-1H-quinolin-2-one] | ≥ 100 |
| O=C1CCc2cc(OCCn3nccc3-c3cccc(F)c3)ccc2N1 [ALDHI-2023, 6-[2-[5-(3-fluorophenyl)pyrazol-1-yl]ethoxy]-3,4-dihydro-1H-quinolin-2-one] | ≥ 100 |
| Cn1cc(C2CCCN2CCOc2ccc3c(c2)SCC(=O)N3)cn1 (stereo not drawn) [ALDHI-2026, 7-[2-[2-(1-methylpyrazol-4-yl)pyrrolidin-1-yl]ethoxy]-4H-1,4-benzothiazin-3-one] | ≥ 100 |
| O=C1CSc2cc(OCCN3CCCC3c3ccccn3)ccc2N1 (stereo not drawn) [ALDHI-2027, 7-[2-[2-(2-pyridyl)pyrrolidin-1-yl]ethoxy]-4H-1,4-benzothiazin-3-one] | ≥ 100 |
| O=C1CSc2cc(OCCN3CCCC3c3cccnc3)ccc2N1 (stereo not drawn) [ALDHI-2028, 7-[2-[2-(3-pyridyl)pyrrolidin-1-yl]ethoxy]-4H-1,4-benzothiazin-3-one] | ≥ 100 |
| O=C1CSc2cc(OCCN3CCCC3c3ccncc3)ccc2N1 (stereo not drawn) [ALDHI-2029, 7-[2-[2-(4-pyridyl)pyrrolidin-1-yl]ethoxy]-4H-1,4-benzothiazin-3-one] | ≥ 100 |
| Cc1ccc(C2CCCN2CCOc2ccc3c(c2)CCC(=O)N3)cn1 (stereo not drawn) [ALDHI-2030, 6-[2-[2-(6-methyl-3-pyridyl)pyrrolidin-1-yl]ethoxy]-3,4-dihydro-1H-quinolin-2-one] | ≥ 100 |
| O=C1CCc2cc(OCCN3CCOCC3c3cccc(F)c3)ccc2N1 (stereo not drawn) [ALDHI-2031, 6-[2-[3-(3-fluorophenyl)morpholin-4-yl]ethoxy]-3,4-dihydro-1H-quinolin-2-one] | ≥ 100 |
| O=C1CCc2cc(OCCN3CCCC3c3cc(F)cc(F)c3)ccc2N1 (stereo not drawn) [ALDHI-2032, 6-[2-[2-(3,5-difluorophenyl)pyrrolidin-1-yl]ethoxy]-3,4-dihydro-1H-quinolin-2-one] | ≥ 100 |
| Cc1nc(C2CCCN2CCOc2ccc3c(c2)CCC(=O)N3)cs1 (stereo not drawn) [ALDHI-2033, 6-[2-[2-(2-methylthiazol-4-yl)pyrrolidin-1-yl]ethoxy]-3,4-dihydro-1H-quinolin-2-one] | ≥ 100 |

| Structure (SMILES) | IC50 [µM] |
| --- | --- |
| COc1cccc(C2CCCN2CCOc2ccc3c(c2)CCC(=O)N3)c1 (stereo not drawn) [ALDHI-2034, 6-[2-[2-(3-methoxyphenyl)pyrrolidin-1-yl]ethoxy]-3,4-dihydro-1H-quinolin-2-one] | ≥ 100 |
| CC1(c2cccc(F)c2)CCCN1CCOc1ccc2c(c1)CCC(=O)N2 (stereo not drawn) [ALDHI-2037, 6-[2-[2-(3-fluorophenyl)-2-methyl-pyrrolidin-1-yl]ethoxy]-3,4-dihydro-1H-quinolin-2-one] | ≥ 100 |
| O=C1CCc2cc(OCCN3CCCCC3c3cccc(F)c3)ccc2N1 (stereo not drawn) [ALDHI-2038, 6-[2-[2-(3-fluorophenyl)-1-piperidyl]ethoxy]-3,4-dihydro-1H-quinolin-2-one] | ≥ 100 |
| O=C1CCc2cc(OCCN3CCCC3c3ccc(F)c(F)c3)ccc2N1 (stereo not drawn) [ALDHI-2039, 6-[2-[2-(3,4-difluorophenyl)pyrrolidin-1-yl]ethoxy]-3,4-dihydro-1H-quinolin-2-one] | ≥ 100 |
| CC1(c2ccccc2)COCCN1CCOc1ccc2c(c1)CCC(=O)N2 (stereo not drawn) [ALDHI-2040, 6-[2-(3-methyl-3-phenyl-morpholin-4-yl)ethoxy]-3,4-dihydro-1H-quinolin-2-one] | ≥ 100 |
| O=C1CCc2cc(OCCn3ccnc3-c3ccccc3)ccc2N1 [ALDHI-2041, 6-[2-(2-phenylimidazol-1-yl)ethoxy]-3,4-dihydro-1H-quinolin-2-one] | ≥ 100 |
| CC1(C)Oc2cc(OCCN3CCCC3c3cccc(F)c3)ccc2NC1=O (stereo not drawn) [ALDHI-2043, 7-[2-[2-(3-fluorophenyl)pyrrolidin-1-yl]ethoxy]-2,2-dimethyl-4H-1,4-benzoxazin-3-one] | ≥ 100 |
| CC1Oc2cc(OCCN3CCCC3c3cccc(F)c3)ccc2NC1=O (stereo not drawn) [ALDHI-2044, 7-[2-[2-(3-fluorophenyl)pyrrolidin-1-yl]ethoxy]-2-methyl-4H-1,4-benzoxazin-3-one] | ≥ 100 |
| CCC1Oc2cc(OCCN3CCCC3c3cccc(F)c3)ccc2NC1=O (stereo not drawn) [ALDHI-2045, 2-ethyl-7-[2-[2-(3-fluorophenyl)pyrrolidin-1-yl]ethoxy]-4H-1,4-benzoxazin-3-one] | ≥ 100 |
| CC1Cc2cc(OCCN3CCCC3c3cccc(F)c3)ccc2NC1=O (stereo not drawn) [ALDHI-2048, 6-[2-[2-(3-fluorophenyl)pyrrolidin-1-yl]ethoxy]-3-methyl-3,4-dihydro-1H-quinolin-2-one] | ≥ 100 |
| O=C1CCc2cc(OCCN3CCCC3c3cccc(F)c3)c(F)cc2N1 (stereo not drawn) [ALDHI-2050, 7-fluoro-6-[2-[2-(3-fluorophenyl)pyrrolidin-1-yl]ethoxy]-3,4-dihydro-1H-quinolin-2-one] | ≥ 100 |
| O=C1CCc2cc(OCCN3C(=O)CCC3c3ccccc3)ccc2N1 (stereo not drawn) [ALDHI-2051, 6-[2-(2-oxo-5-phenyl-pyrrolidin-1-yl)ethoxy]-3,4-dihydro-1H-quinolin-2-one] | ≥ 100 |
| O=C1CCc2cc(OCCN3CC(F)CC3c3cccc(F)c3)ccc2N1 (stereo not drawn) [ALDHI-2052, 6-[2-[4-fluoro-2-(3-fluorophenyl)pyrrolidin-1-yl]ethoxy]-3,4-dihydro-1H-quinolin-2-one] | ≥ 100 |
| O=C1CCc2cc(OCCN3CC(F)(F)CC3c3cccc(F)c3)ccc2N1 (stereo not drawn) [ALDHI-2053, 6-[2-[4,4-difluoro-2-(3-fluorophenyl)pyrrolidin-1-yl]ethoxy]-3,4-dihydro-1H-quinolin-2-one] | ≥ 100 |
| CN(CCOc1ccc2c(c1)CCC(=O)N2)Cc1cccc(F)c1 [ALDHI-3001, 6-[2-[(3-fluorophenyl)methyl-methyl-amino]ethoxy]-3,4-dihydro-1H-quinolin-2-one] | ≥ 100 |
| O=C1CCc2cc(OCCN(CCO)Cc3cccc(F)c3)ccc2N1 [ALDHI-3002, 6-[2-[(3-fluorophenyl)methyl-(2-hydroxyethyl)amino]ethoxy]-3,4-dihydro-1H-quinolin-2-one] | ≥ 100 |
